According to US4479951A, “1.4;3.6-Dianhydrohexitol nitrates substituted by purine bases, processes for their preparation and pharmaceutical compositions” (Dr. Willmar Schwabe GmbH & Co., priority 1980, dated 1984):

System: mongrel dogs
Test: circulatory-pharmacological effectiveness on the narcotised dog, intravenous administration
Format: in vivo

`Nc1ncnc2c1ncn2[C@H]1CO[C@H]2[C@@H]1OC[C@@H]2O[N+](=O)[O-]` [1c/2c, 5-(9-Adenyl)-5-desoxy-1.4;3.6-dianhydro-L-iditol 2-nitrate] was tested, and the “APdiast: diastolic aorta pressure” value (2 min after i.v. 1 mg/kg) was 74.1 mm.Hg, the “APsyst: systolic aorta pressure” value (2 min after i.v. 1 mg/kg) was 115.3 mm.Hg and the “BFFem: blood flow in the A. femoralis, referred to 20 kg. body weight” value (“BFFem: blood flow in the A. femoralis” for short) (2 min after i.v. 1 mg/kg) was 35.3 mL/min. The “HF: heart frequency” value (2 min after i.v. 1 mg/kg) was 158.7 min⁻¹, the “HLL: heart capacity left, referred to 20 kg. body weight” value (“HLL: heart capacity left, referred” for short) (2 min after i.v. 1 mg/kg) was 0.75 W and the “HLR: heart capacity right, referred to 20 kg. body weight” value (“HLR: heart capacity right, referred” below) (2 min after i.v. 1 mg/kg) was 115.8 mW. For the same compound, the HZV: heart minute volume, referred to 20 kg. body weight (2 min after i.v. 1 mg/kg) was 3.91 L/min, the “LVEDP: end diastolic pressure in the left ventricle” value (“LVEDP: end diastolic pressure” below) (2 min after i.v. 1 mg/kg) was 2.62 mm.Hg and the “PAP: average pressure in the A. pulmonalis” value (from here on “PAP: average pressure”) (2 min after i.v. 1 mg/kg) was 15.6 ±2.1 mm.Hg. For the same compound, the “PRA: pressure in the right atrium” value (2 min after i.v. 1 mg/kg) was 2.06 mm.Hg, the “SV: beat volume, referred to 20 kg. body weight” value (from here on “SV: beat volume, referred”) (2 min after i.v. 1 mg/kg) was 25.6 mL and the “WAP: pulmonalis resistance, referred to 20 kg. body weight” value (shortened to “WAP: pulmonalis resistance, referred”) (2 min after i.v. 1 mg/kg) was 0.45 U. The “WFem: femoralis resistance, referred to 20 kg. body weight” value (shortened to “WFem: femoralis resistance, referred”) (2 min after i.v. 1 mg/kg) was 0.35 KU, the “WTP: total peripheral resistance, referred to 20 kg. body weight” value (shortened to “WTP: total peripheral resistance”) (2 min after i.v. 1 mg/kg) was 2.93 U and the “dp/dt: rate of pressure increase in the left ventricle” value (“dp/dt: rate of pressure increase” for short) (2 min after i.v. 1 mg/kg) was 2606.2 mm.Hg/sec. The “APdiast: diastolic aorta pressure” value (5 min after i.v. 1 mg/kg) was 82.5 mm.Hg, the “APsyst: systolic aorta pressure” value (5 min after i.v. 1 mg/kg) was 120.9 mm.Hg and the “BFFem: blood flow in the A. femoralis” value (5 min after i.v. 1 mg/kg) was 36.6 mL/min. The “HF: heart frequency” value (5 min after i.v. 1 mg/kg) was 148.7 min⁻¹, the “HLL: heart capacity left, referred” value (5 min after i.v. 1 mg/kg) was 0.74 W and the “HLR: heart capacity right, referred” value (5 min after i.v. 1 mg/kg) was 87.6 mW. For the same compound, the HZV: heart minute volume, referred to 20 kg. body weight (5 min after i.v. 1 mg/kg) was 3.61 L/min, the “LVEDP: end diastolic pressure” value (5 min after i.v. 1 mg/kg) was 2.91 mm.Hg and the “PAP: average pressure” value (5 min after i.v. 1 mg/kg) was 13.7 ±1.4 mm.Hg. The “PRA: pressure in the right atrium” value (5 min after i.v. 1 mg/kg) was 2.81 mm.Hg, the “SV: beat volume, referred” value (5 min after i.v. 1 mg/kg) was 26.0 mL and the “WAP: pulmonalis resistance, referred” value (5 min after i.v. 1 mg/kg) was 0.40 U. For the same compound, the “WFem: femoralis resistance, referred” value (5 min after i.v. 1 mg/kg) was 0.36 KU, the “WTP: total peripheral resistance” value (5 min after i.v. 1 mg/kg) was 3.42 U and the “dp/dt: rate of pressure increase” value (5 min after i.v. 1 mg/kg) was 2343.7 mm.Hg/sec. For the same compound, the “APdiast: diastolic aorta pressure” value (7 min after i.v. 1 mg/kg) was 83.4 mm.Hg, the “APsyst: systolic aorta pressure” value (7 min after i.v. 1 mg/kg) was 121.9 mm.Hg and the “BFFem: blood flow in the A. femoralis” value (7 min after i.v. 1 mg/kg) was 38.6 mL/min. The “HF: heart frequency” value (7 min after i.v. 1 mg/kg) was 146.7 min⁻¹, the “HLL: heart capacity left, referred” value (7 min after i.v. 1 mg/kg) was 0.72 W and the “HLR: heart capacity right, referred” value (7 min after i.v. 1 mg/kg) was 89.3 mW. For the same compound, the HZV: heart minute volume, referred to 20 kg. body weight (7 min after i.v. 1 mg/kg) was 3.51 L/min, the “LVEDP: end diastolic pressure” value (7 min after i.v. 1 mg/kg) was 2.91 mm.Hg and the “PAP: average pressure” value (7 min after i.v. 1 mg/kg) was 14.1 ±1.6 mm.Hg. The “PRA: pressure in the right atrium” value (7 min after i.v. 1 mg/kg) was 2.81 mm.Hg, the “SV: beat volume, referred” value (7 min after i.v. 1 mg/kg) was 25.6 mL and the “WAP: pulmonalis resistance, referred” value (7 min after i.v. 1 mg/kg) was 0.42 U. For the same compound, the “WFem: femoralis resistance, referred” value (7 min after i.v. 1 mg/kg) was 0.34 KU, the “WTP: total peripheral resistance” value (7 min after i.v. 1 mg/kg) was 3.59 U and the “dp/dt: rate of pressure increase” value (7 min after i.v. 1 mg/kg) was 2362.5 mm.Hg/sec. The “APdiast: diastolic aorta pressure” value (10 min after i.v. 1 mg/kg) was 83.4 mm.Hg, the “APsyst: systolic aorta pressure” value (10 min after i.v. 1 mg/kg) was 120.9 mm.Hg and the “BFFem: blood flow in the A. femoralis” value (10 min after i.v. 1 mg/kg) was 39.5 mL/min. For the same compound, the “HF: heart frequency” value (10 min after i.v. 1 mg/kg) was 141.2 min⁻¹, the “HLL: heart capacity left, referred” value (10 min after i.v. 1 mg/kg) was 0.72 W and the “HLR: heart capacity right, referred” value (10 min after i.v. 1 mg/kg) was 88.8 mW. The HZV: heart minute volume, referred to 20 kg. body weight (10 min after i.v. 1 mg/kg) was 3.5 L/min, the “LVEDP: end diastolic pressure” value (10 min after i.v. 1 mg/kg) was 3.20 mm.Hg and the “PAP: average pressure” value (10 min after i.v. 1 mg/kg) was 14.2 ±1.6 mm.Hg. The “PRA: pressure in the right atrium” value (10 min after i.v. 1 mg/kg) was 2.95 mm.Hg, the “SV: beat volume, referred” value (10 min after i.v. 1 mg/kg) was 26.4 mL and the “WAP: pulmonalis resistance, referred” value (10 min after i.v. 1 mg/kg) was 0.42 U. The “WFem: femoralis resistance, referred” value (10 min after i.v. 1 mg/kg) was 0.33 KU, the “WTP: total peripheral resistance” value (10 min after i.v. 1 mg/kg) was 3.57 U and the “dp/dt: rate of pressure increase” value (10 min after i.v. 1 mg/kg) was 2268.7 mm.Hg/sec. For the same compound, the “APdiast: diastolic aorta pressure” value (15 min after i.v. 1 mg/kg) was 80.6 mm.Hg, the “APsyst: systolic aorta pressure” value (15 min after i.v. 1 mg/kg) was 120.4 mm.Hg and the “BFFem: blood flow in the A. femoralis” value (15 min after i.v. 1 mg/kg) was 39.9 mL/min. The “HF: heart frequency” value (15 min after i.v. 1 mg/kg) was 133.0 min⁻¹, the “HLL: heart capacity left, referred” value (15 min after i.v. 1 mg/kg) was 0.72 W and the “HLR: heart capacity right, referred” value (15 min after i.v. 1 mg/kg) was 87.3 mW. For the same compound, the HZV: heart minute volume, referred to 20 kg. body weight (15 min after i.v. 1 mg/kg) was 3.61 L/min, the “LVEDP: end diastolic pressure” value (15 min after i.v. 1 mg/kg) was 3.37 mm.Hg and the “PAP: average pressure” value (15 min after i.v. 1 mg/kg) was 14.0 ±1.9 mm.Hg. For the same compound, the “PRA: pressure in the right atrium” value (15 min after i.v. 1 mg/kg) was 3.24 mm.Hg, the “SV: beat volume, referred” value (15 min after i.v. 1 mg/kg) was 29.3 mL and the “WAP: pulmonalis resistance, referred” value (15 min after i.v. 1 mg/kg) was 0.40 U. For the same compound, the “WFem: femoralis resistance, referred” value (15 min after i.v. 1 mg/kg) was 0.32 KU, the “WTP: total peripheral resistance” value (15 min after i.v. 1 mg/kg) was 3.41 U and the “dp/dt: rate of pressure increase” value (15 min after i.v. 1 mg/kg) was 2250.0 mm.Hg/sec. The “APdiast: diastolic aorta pressure” value (20 min after i.v. 1 mg/kg) was 79.1 mm.Hg, the “APsyst: systolic aorta pressure” value (20 min after i.v. 1 mg/kg) was 121.5 mm.Hg and the “BFFem: blood flow in the A. femoralis” value (20 min after i.v. 1 mg/kg) was 41.2 mL/min. For the same compound, the “HF: heart frequency” value (20 min after i.v. 1 mg/kg) was 129.7 min⁻¹, the “HLL: heart capacity left, referred” value (20 min after i.v. 1 mg/kg) was 0.72 W and the “HLR: heart capacity right, referred” value (20 min after i.v. 1 mg/kg) was 87.7 mW. The HZV: heart minute volume, referred to 20 kg. body weight (20 min after i.v. 1 mg/kg) was 3.66 L/min, the “LVEDP: end diastolic pressure” value (20 min after i.v. 1 mg/kg) was 3.56 mm.Hg and the “PAP: average pressure” value (20 min after i.v. 1 mg/kg) was 13.8 ±1.7 mm.Hg. For the same compound, the “PRA: pressure in the right atrium” value (20 min after i.v. 1 mg/kg) was 3.30 mm.Hg, the “SV: beat volume, referred” value (20 min after i.v. 1 mg/kg) was 30.0 mL and the “WAP: pulmonalis resistance, referred” value (20 min after i.v. 1 mg/kg) was 0.37 U. For the same compound, the “WFem: femoralis resistance, referred” value (20 min after i.v. 1 mg/kg) was 0.31 KU, the “WTP: total peripheral resistance” value (20 min after i.v. 1 mg/kg) was 3.32 U and the “dp/dt: rate of pressure increase” value (20 min after i.v. 1 mg/kg) was 2231.2 mm.Hg/sec. For the same compound, the “APdiast: diastolic aorta pressure” value (25 min after i.v. 1 mg/kg) was 80.6 mm.Hg, the “APsyst: systolic aorta pressure” value (25 min after i.v. 1 mg/kg) was 122.8 mm.Hg and the “BFFem: blood flow in the A. femoralis” value (25 min after i.v. 1 mg/kg) was 42.2 mL/min. The “HF: heart frequency” value (25 min after i.v. 1 mg/kg) was 125.7 min⁻¹, the “HLL: heart capacity left, referred” value (25 min after i.v. 1 mg/kg) was 0.74 W and the “HLR: heart capacity right, referred” value (25 min after i.v. 1 mg/kg) was 90.0 mW. The HZV: heart minute volume, referred to 20 kg. body weight (25 min after i.v. 1 mg/kg) was 3.7 L/min, the “LVEDP: end diastolic pressure” value (25 min after i.v. 1 mg/kg) was 4.03 mm.Hg and the “PAP: average pressure” value (25 min after i.v. 1 mg/kg) was 14.0 ±1.8 mm.Hg. For the same compound, the “PRA: pressure in the right atrium” value (25 min after i.v. 1 mg/kg) was 3.28 mm.Hg, the “SV: beat volume, referred” value (25 min after i.v. 1 mg/kg) was 31.3 mL and the “WAP: pulmonalis resistance, referred” value (25 min after i.v. 1 mg/kg) was 0.36 U. The “WFem: femoralis resistance, referred” value (25 min after i.v. 1 mg/kg) was 0.31 KU, the “WTP: total peripheral resistance” value (25 min after i.v. 1 mg/kg) was 3.33 U and the “dp/dt: rate of pressure increase” value (25 min after i.v. 1 mg/kg) was 2175.0 mm.Hg/sec. For the same compound, the “APdiast: diastolic aorta pressure” value (30 min after i.v. 1 mg/kg) was 79.7 mm.Hg, the “APsyst: systolic aorta pressure” value (30 min after i.v. 1 mg/kg) was 122.8 mm.Hg and the “BFFem: blood flow in the A. femoralis” value (30 min after i.v. 1 mg/kg) was 43.9 mL/min. For the same compound, the “HF: heart frequency” value (30 min after i.v. 1 mg/kg) was 122.7 min⁻¹, the “HLL: heart capacity left, referred” value (30 min after i.v. 1 mg/kg) was 0.73 W and the “HLR: heart capacity right, referred” value (30 min after i.v. 1 mg/kg) was 84.9 mW. The HZV: heart minute volume, referred to 20 kg. body weight (30 min after i.v. 1 mg/kg) was 3.63 L/min, the “LVEDP: end diastolic pressure” value (30 min after i.v. 1 mg/kg) was 4.31 mm.Hg and the “PAP: average pressure” value (30 min after i.v. 1 mg/kg) was 14.1 ±1.8 mm.Hg. For the same compound, the “PRA: pressure in the right atrium” value (30 min after i.v. 1 mg/kg) was 3.52 mm.Hg, the “SV: beat volume, referred” value (30 min after i.v. 1 mg/kg) was 31.6 mL and the “WAP: pulmonalis resistance, referred” value (30 min after i.v. 1 mg/kg) was 0.36 U. For the same compound, the “WFem: femoralis resistance, referred” value (30 min after i.v. 1 mg/kg) was 0.29 KU, the “WTP: total peripheral resistance” value (30 min after i.v. 1 mg/kg) was 3.32 U and the “dp/dt: rate of pressure increase” value (30 min after i.v. 1 mg/kg) was 2184.4 mm.Hg/sec.
